# Test results: US11840686B2, “Modulation of prekallikrein (PKK) expression” (Ionis Pharmaceuticals, Inc., priority 2013, dated 2023)
# Strand notation (5' to 3'): a small letter for the sugar, then the base; units joined by * are phosphorothioate-linked, units joined directly phosphodiester-linked; [ ] holds rarer units or linkages, { } end groups; capitals alone tell only the bases. e = 2'-O-(2-methoxyethyl) (MOE); k = constrained ethyl (cEt); [5mC] = 5-methylcytosine; d = 2'-deoxy (DNA)
# System: human PKK mRNA
# Test: Antisense inhibition of human PKK mRNA in HepaRG cells, 1,000 nM, MOE/deoxy/cEt oligonucleotides (Example 3)
# Type: cell-based
# Summary of the method: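 HepaRG cells at 20,000 per well electroporated with 1,000 nM 16-mer MOE/cEt/deoxy gapmers (phosphorothioate, 5-methylcytosine). After about 24 h, PKK mRNA measured by qRT-PCR with primer probe set RTS3454, normalized to RIBOGREEN total RNA. Reported as percent inhibition versus untreated cells.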
# [1] = HepaRG cells, electroporation with 1,000 nM antisense oligonucleotide, approx. 24 hours, PKK mRNA by RT-PCR (RTS3454), relative to untreated control cells, Table 26 experiment
# [2] = HepaRG cells, electroporation with 1,000 nM antisense oligonucleotide, approx. 24 hours, PKK mRNA by RT-PCR (RTS3454), relative to untreated control cells, Table 25 experiment
# [3] = Table 21 experiment, HepaRG cells, electroporation with 1,000 nM antisense oligonucleotide, approx. 24 hours, PKK mRNA by RT-PCR (RTS3454), relative to untreated control cells
# [4] = HepaRG cells, electroporation with 1,000 nM antisense oligonucleotide, approximately 24 hours, primer probe set RTS3454, relative to untreated control cells, experiment of Table 24
# [5] = Table 20, HepaRG cells, electroporation with 1,000 nM antisense oligonucleotide, approximately 24 hours, PKK mRNA by RT-PCR (RTS3454), relative to untreated control cells
# [6] = Table 22 experiment, HepaRG cells, electroporation with 1,000 nM antisense oligonucleotide, approx. 24 hours, PKK mRNA by RT-PCR (RTS3454), relative to untreated control cells
# [7] = Table 28, HepaRG cells, 1,000 nM antisense oligonucleotide, human PKK mRNA
# [8] = Table 19, HepaRG cells, electroporation with 1,000 nM antisense oligonucleotide, approximately 24 hours, PKK mRNA by RT-PCR (RTS3454), relative to untreated control cells
# [9] = HepaRG cells, 1,000 nM antisense oligonucleotide, Table 29
# [10] = HepaRG cells, electroporation with 1,000 nM antisense oligonucleotide, approximately 24 hours, primer probe set RTS3454, relative to untreated control cells, experiment of Table 23
# [11] = PKK mRNA, HepaRG cells, 1,000 nM antisense oligonucleotide, Table 31
# [12] = Table 30, human PKK mRNA, HepaRG cells, 1,000 nM antisense oligonucleotide
# [13] = Table 27, HepaRG cells, 1,000 nM antisense oligonucleotide, human PKK mRNA
substance,measurement,setting,value
548297 (eA*e[5mC]*kT*d[5mC]*dT*d[5mC]*dA*dA*dG*d[5mC]*dT*d[5mC]*d[5mC]*kA*k[5mC]*eG; antisense) [compound 548297],% inhibition,[1],32%
548187 (e[5mC]*eA*kT*d[5mC]*d[5mC]*dT*dA*dT*d[5mC]*d[5mC]*dG*dT*dG*kT*kT*e[5mC]; antisense) [compound 548187],% inhibition,[2],33%
547832 (eA*e[5mC]*kT*dG*d[5mC]*dA*d[5mC]*d[5mC]*dT*dG*dT*dT*d[5mC]*kG*kA*eT; antisense) [compound 547832],% inhibition,[3],59%
547840 (antisense eT*eT*kG*d[5mC]*dT*dT*d[5mC]*dA*dA*dG*dG*dA*dA*kT*kG*eT) [compound 547840],% inhibition,[3],36%
548064 (eT*eG*kG*dT*dA*dT*dA*dA*dA*dT*dT*dG*dT*kG*k[5mC]*eT; antisense) [compound 548064],% inhibition,[4],54%
548250 (antisense e[5mC]*eT*kT*dT*dG*dT*dG*dA*dT*dG*d[5mC]*dG*dA*kT*kT*eT) [compound 548250],% inhibition,[1],0%
547904 (eA*e[5mC]*kT*d[5mC]*dA*dG*d[5mC]*dA*d[5mC]*d[5mC]*dT*dT*dT*kA*kT*eA; antisense) [compound 547904],% inhibition,[5],56%
same,% inhibition,[6],41%
548529 (antisense eG*e[5mC]*kG*dA*dT*dT*d[5mC]*d[5mC]*dT*dT*dG*d[5mC]*d[5mC]*kT*k[5mC]*eT) [compound 548529],% inhibition,[7],56%
548121 (antisense eT*e[5mC]*kT*dG*dG*dA*d[5mC]*dT*dG*d[5mC]*dT*dT*d[5mC]*kT*k[5mC]*eA) [compound 548121],% inhibition,[8],64%
548534 (antisense e[5mC]*eA*kG*dA*dT*d[5mC]*d[5mC]*d[5mC]*dA*dA*dT*dT*d[5mC]*kT*kT*e[5mC]) [compound 548534],% inhibition,[7],22%
548597 (eT*eG*kA*dA*dT*dA*d[5mC]*d[5mC]*dA*dT*d[5mC]*d[5mC]*d[5mC]*k[5mC]*kG*e[5mC]; antisense) [compound 548597],% inhibition,[9],50%
548275 (antisense eG*eT*k[5mC]*d[5mC]*d[5mC]*dA*dA*dG*dA*d[5mC]*dA*dT*dT*k[5mC]*k[5mC]*eT) [compound 548275],% inhibition,[1],40%
548478 (eG*eA*kG*d[5mC]*d[5mC]*dA*dT*d[5mC]*d[5mC]*dA*dG*dG*dG*kT*kG*e[5mC]; antisense) [compound 548478],% inhibition,[7],53%
548498 (antisense e[5mC]*e[5mC]*kG*dA*dT*dA*dA*d[5mC]*dA*dG*dA*d[5mC]*d[5mC]*kG*kG*e[5mC]) [compound 548498],% inhibition,[7],71%
548592 (e[5mC]*eT*k[5mC]*dA*d[5mC]*d[5mC]*dA*dG*dA*dG*dT*dT*dG*kT*k[5mC]*e[5mC]; antisense) [compound 548592],% inhibition,[9],7%
547941 (eG*eT*kG*dT*dG*d[5mC]*d[5mC]*dA*d[5mC]*dT*dT*dT*d[5mC]*kA*kG*eA; antisense) [compound 547941],% inhibition,[10],66%
548006 (e[5mC]*eA*kA*dA*dG*dA*dG*dT*dA*dA*d[5mC]*d[5mC]*dA*kG*kA*eG; antisense) [compound 548006],% inhibition,[4],54%
548202 (eG*e[5mC]*kT*dG*dT*dT*d[5mC]*dT*dA*dA*dT*dG*dT*kG*kG*e[5mC]; antisense) [compound 548202],% inhibition,[2],9%
547834 (eA*eA*kA*d[5mC]*dT*dG*d[5mC]*dA*d[5mC]*d[5mC]*dT*dG*dT*kT*k[5mC]*eG; antisense) [compound 547834],% inhibition,[3],63%
548093 (antisense eT*eT*kT*dG*d[5mC]*dA*dA*dA*d[5mC]*dT*dA*dA*dG*kG*kG*eA) [compound 548093],% inhibition,[8],0%
548518 (antisense e[5mC]*eA*k[5mC]*dA*d[5mC]*dT*dT*dA*d[5mC]*d[5mC]*d[5mC]*d[5mC]*dG*k[5mC]*kT*e[5mC]) [compound 548518],% inhibition,[7],12%
548675 (antisense eG*eG*kG*dA*dA*dG*dG*dT*dA*dG*dT*dG*dT*kT*kA*e[5mC]) [compound 548675],% inhibition,[11],8%
548103 (antisense eT*eG*kT*dA*d[5mC]*dT*d[5mC]*dA*dG*d[5mC]*dG*dA*d[5mC]*kT*kT*eT) [compound 548103],% inhibition,[8],66%
548156 (eT*e[5mC]*kA*dG*d[5mC]*d[5mC]*d[5mC]*d[5mC]*dT*dG*dG*dT*dT*kA*k[5mC]*eG; antisense) [compound 548156],% inhibition,[2],0%
548687 (antisense eG*eA*kA*dT*d[5mC]*dT*d[5mC]*d[5mC]*d[5mC]*dT*dG*dA*dG*kT*k[5mC]*eA) [compound 548687],% inhibition,[11],20%
548395 (eA*eT*k[5mC]*d[5mC]*dT*dT*d[5mC]*d[5mC]*d[5mC]*d[5mC]*dT*d[5mC]*dG*k[5mC]*kA*eA; antisense) [compound 548395],% inhibition,[12],0%
548688 (DNA eT*eA*kG*dA*dG*dG*dG*dA*dT*d[5mC]*d[5mC]*d[5mC]*dA*kG*kG*eA) [compound 548688],% inhibition,[11],0%
547860 (antisense eT*e[5mC]*k[5mC]*dT*d[5mC]*dT*d[5mC]*dA*dT*dA*dT*d[5mC]*dA*kA*k[5mC]*eT) [compound 547860],% inhibition,[5],71%
same,% inhibition,[6],70%
548423 (antisense eA*eG*kT*dA*dT*d[5mC]*dA*d[5mC]*dT*dG*dT*d[5mC]*d[5mC]*kT*kA*eT) [compound 548423],% inhibition,[12],72%
548227 (eG*eT*kG*dG*d[5mC]*d[5mC]*d[5mC]*dT*d[5mC]*dT*dT*dA*dA*kG*kT*e[5mC]; antisense) [compound 548227],% inhibition,[2],0%
548100 (antisense eA*e[5mC]*kT*d[5mC]*dA*dG*d[5mC]*dG*dA*d[5mC]*dT*dT*dT*kG*kG*eT) [compound 548100],% inhibition,[8],25%
548426 (antisense eT*eA*kT*dA*dA*d[5mC]*dA*dG*dT*dA*dT*d[5mC]*dA*k[5mC]*kT*eG) [compound 548426],% inhibition,[12],14%
548369 (eG*eT*kT*dG*dG*dG*dA*dT*dG*d[5mC]*dG*dA*d[5mC]*kT*k[5mC]*eT; antisense) [compound 548369],% inhibition,[13],50%
548274 (antisense eT*eA*k[5mC]*d[5mC]*dT*dG*dA*d[5mC]*dA*dA*dG*dT*dG*kG*kT*e[5mC]) [compound 548274],% inhibition,[1],0%
548318 (eA*e[5mC]*kT*dG*d[5mC]*dA*d[5mC]*d[5mC]*d[5mC]*d[5mC]*dA*d[5mC]*dA*kT*kA*eT; antisense) [compound 548318],% inhibition,[13],18%
548039 (eG*eA*kA*dA*dG*dG*dT*dG*dT*dA*dT*d[5mC]*dT*kT*kT*eT; antisense) [compound 548039],% inhibition,[4],29%
548363 (antisense e[5mC]*eA*kG*d[5mC]*dA*dG*dG*d[5mC]*dT*d[5mC]*dA*dA*dA*kG*kT*eG) [compound 548363],% inhibition,[13],37%
548152 (e[5mC]*eG*kG*dG*d[5mC]*dT*dT*d[5mC]*dA*dG*d[5mC]*d[5mC]*dA*kG*kA*e[5mC]; antisense) [compound 548152],% inhibition,[2],32%
548600 (eT*eG*kG*dT*dG*dG*dT*dG*dG*dG*dA*dT*dT*kG*kG*eT; antisense) [compound 548600],% inhibition,[9],53%
548504 (antisense eG*e[5mC]*kA*dG*d[5mC]*dG*dA*dG*d[5mC]*dA*dT*dT*d[5mC]*k[5mC]*kA*eA) [compound 548504],% inhibition,[7],28%
548081 (e[5mC]*e[5mC]*k[5mC]*d[5mC]*dT*dT*d[5mC]*dT*dT*dT*dA*dT*dA*kG*k[5mC]*e[5mC]; antisense) [compound 548081],% inhibition,[8],64%
548674 (antisense eG*eA*kG*dA*dG*dA*d[5mC]*dG*dG*d[5mC]*dA*d[5mC]*d[5mC]*k[5mC]*kT*eG) [compound 548674],% inhibition,[11],4%
548129 (eT*eT*kT*dG*dA*d[5mC]*dT*dT*dG*dA*dA*d[5mC]*dT*k[5mC]*kA*eG; antisense) [compound 548129],% inhibition,[8],35%
547932 (e[5mC]*eG*kA*dT*dT*dT*dT*d[5mC]*d[5mC]*dA*dT*dA*d[5mC]*kA*kT*eT; antisense) [compound 547932],% inhibition,[10],33%
547988 (antisense eT*eG*kA*d[5mC]*dA*dG*d[5mC]*dG*dA*dA*dT*d[5mC]*dA*kT*k[5mC]*eT) [compound 547988],% inhibition,[10],56%
548226 (eT*eA*kA*dG*dT*d[5mC]*dA*d[5mC]*d[5mC]*dA*dT*dA*dG*kA*k[5mC]*e[5mC]; antisense) [compound 548226],% inhibition,[2],39%
548417 (antisense eA*e[5mC]*kT*dG*dT*d[5mC]*d[5mC]*dT*dA*dT*dA*dA*d[5mC]*kT*k[5mC]*eT) [compound 548417],% inhibition,[12],24%
